Data reported in ChEMBL document CHEMBL1132382 (J Med Chem, 1999).
Converted amounts (≈) assume the structure as drawn.

How the values were obtained:
Carbonic anhydrase 4 = biological target: T1, Carbonic anhydrase 4 (Bos taurus, UniProt Q95323)
T1 sequence (Q95323 whole entry): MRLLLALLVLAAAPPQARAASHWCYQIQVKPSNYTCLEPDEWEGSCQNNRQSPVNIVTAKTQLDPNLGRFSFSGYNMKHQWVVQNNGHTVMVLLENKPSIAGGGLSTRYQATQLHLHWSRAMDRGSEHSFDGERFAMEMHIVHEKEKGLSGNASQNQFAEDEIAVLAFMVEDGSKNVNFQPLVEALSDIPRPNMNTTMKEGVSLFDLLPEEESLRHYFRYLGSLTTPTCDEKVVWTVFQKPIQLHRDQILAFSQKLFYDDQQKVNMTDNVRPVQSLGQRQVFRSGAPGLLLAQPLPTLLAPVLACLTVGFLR
Description: Inhibitory activity against bovine carbonic anhydrase IV (CA4), isolated from bovine lung microsomes

Carbonic anhydrase 1 = Carbonic anhydrase 1 (Homo sapiens, UniProt P00915)
Description: Inhibitory activity against human recombinant carbonic anhydrase I (CA1)

Oryctolagus cuniculus [1] = organism: Oryctolagus cuniculus; experiment: The compound was evaluated for fall in intraocular pressure (IOP) of Normotensive rabbits after treatment with one drop (50 microL) of a 2% solution at 0 min (pH 6.5); type: functional, Eye
Oryctolagus cuniculus [2] = organism: Oryctolagus cuniculus; experiment: The compound was evaluated for fall in intraocular pressure (IOP) of Normotensive rabbits after treatment with one drop (50 microL) of a 2% solution at 30 min (pH 6.5); type: functional, Eye
Oryctolagus cuniculus [3] = organism: Oryctolagus cuniculus; experiment: The compound was evaluated for fall in intraocular pressure (IOP) of Normotensive rabbits after treatment with one drop (50 microL) of a 2% solution at 60 min (pH 6.5); type: functional, Eye
Oryctolagus cuniculus [4] = organism: Oryctolagus cuniculus; experiment: The compound was evaluated for fall in intraocular pressure (IOP) of Normotensive rabbits after treatment with one drop (50 microL) of a 2% solution at 90 min (pH 6.5); type: functional, Eye
Oryctolagus cuniculus [5] = organism: Oryctolagus cuniculus; experiment: The compound was evaluated for fall in intraocular pressure (IOP) of Normotensive rabbits after treatment with one drop (50 microL) of a 2% solution at 30 min (pH 5.5); type: functional, Eye
Oryctolagus cuniculus [6] = organism: Oryctolagus cuniculus; experiment: The compound was evaluated for fall in intraocular pressure (IOP) of Normotensive rabbits after treatment with one drop (50 microL) of a 2% solution at 0 min (pH 5.5); type: functional, Eye
Oryctolagus cuniculus [7] = organism: Oryctolagus cuniculus; experiment: The compound was evaluated for fall in intraocular pressure (IOP) of Normotensive rabbits after treatment with one drop (50 microL) of a 2% solution at 90 min (pH 5.5); type: functional, Eye
Oryctolagus cuniculus [8] = organism: Oryctolagus cuniculus; experiment: The compound was evaluated for fall in intraocular pressure (IOP) of Normotensive rabbits after treatment with one drop (50 microL) of a 2% solution at 60 min (pH 5.5); type: functional, Eye
Oryctolagus cuniculus [9] = organism: Oryctolagus cuniculus; experiment: The compound was evaluated for fall in intraocular pressure (IOP) of Normotensive rabbits after treatment with one drop (50 microL) of a 2% solution at 0 min (pH 6.4); type: functional, Eye
Oryctolagus cuniculus [10] = organism: Oryctolagus cuniculus; experiment: The compound was evaluated for fall in intraocular pressure (IOP) of Normotensive rabbits after treatment with one drop (50 microL) of a 2% solution at 90 min (pH 6.4); type: functional, Eye
Oryctolagus cuniculus [11] = organism: Oryctolagus cuniculus; experiment: The compound was evaluated for fall in intraocular pressure (IOP) of Normotensive rabbits after treatment with one drop (50 microL) of a 2% solution at 30 min (pH 6.4); type: functional, Eye
Oryctolagus cuniculus [12] = organism: Oryctolagus cuniculus; experiment: The compound was evaluated for fall in intraocular pressure (IOP) of Normotensive rabbits after treatment with one drop (50 microL) of a 2% solution at 60 min (pH 6.4); type: functional, Eye
[13] = not given; remark: listed apart in the source
[14] = octanol/water
Description: Partition coefficient (logD) (chloroform/buffer)

physchem = conditions: buffer, pH 7.4

Sequence of Carbonic anhydrase 1 (P00915 whole entry): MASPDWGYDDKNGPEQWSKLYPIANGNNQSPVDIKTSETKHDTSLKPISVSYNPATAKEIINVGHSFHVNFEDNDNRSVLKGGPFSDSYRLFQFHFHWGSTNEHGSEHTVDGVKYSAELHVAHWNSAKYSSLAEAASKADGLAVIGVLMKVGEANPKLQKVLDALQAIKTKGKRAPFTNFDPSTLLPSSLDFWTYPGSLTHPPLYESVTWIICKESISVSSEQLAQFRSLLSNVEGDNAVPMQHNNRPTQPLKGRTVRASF

Row | Structure (SMILES) | Ki (Carbonic anhydrase 4) [nM] | Ki (Carbonic anhydrase 1) [nM] | also measured
1 | CN(CC(=O)Nc1ccc(S(=O)(=O)Nc2cccc(S(N)(=O)=O)c2)cc1)C(=N)N | 57 | 45 | –
2 | CN(CC(=O)Nc1ccc(S(N)(=O)=O)cc1F)C(=N)N | 39 | 510 | Change in IOP (Oryctolagus cuniculus [1]): 0 mmHg; Change in IOP (Oryctolagus cuniculus [2]): 3 mmHg; Change in IOP (Oryctolagus cuniculus [3]): 7.2 mmHg; Change in IOP (Oryctolagus cuniculus [4]): 5 mmHg
3 | CN(CC(=O)NCc1ccc(S(N)(=O)=O)cc1)C(=N)N | 71 | 950 | –
4 | NCC(=O)NCC(=O)NNc1ccc(S(N)(=O)=O)cc1 | 300 | 25200 | –
5 | NCC(=O)NCC(=O)Nc1ccc(S(=O)(=O)Nc2ccc(S(N)(=O)=O)cc2)cc1 | 66 | 54 | –
6 | NCC(=O)Nc1nnc(S(N)(=O)=O)s1 | 55 | 350 | Change in IOP (Oryctolagus cuniculus [5]): 2.9 mmHg; Change in IOP (Oryctolagus cuniculus [6]): 0 mmHg; Change in IOP (Oryctolagus cuniculus [7]): 4.6 mmHg
7 | CNCC(=O)NCCC(=O)Nc1nnc(S(N)(=O)=O)s1 | 9 | 21 | –
8 | NCC(=O)NNc1ccc(S(N)(=O)=O)cc1 | 300 | 25500 | –
9 | NCC(=O)NCCC(=O)Nc1nnc(S(N)(=O)=O)s1 | 10 | 21 | Change in IOP (Oryctolagus cuniculus [5]): 5 mmHg; Change in IOP (Oryctolagus cuniculus [6]): 0 mmHg; Change in IOP (Oryctolagus cuniculus [8]): 9.3 mmHg; Change in IOP (Oryctolagus cuniculus [7]): 8.4 mmHg
10 | CNCC(=O)Nc1ccc(S(N)(=O)=O)cc1Br | 64 | 540 | –
11 | NCC(=O)NCC(=O)Nc1ccc(S(N)(=O)=O)cc1 | 154 | 15000 | –
12 | NCC(=O)NS(=O)(=O)c1ccc(CCO)cc1 | 155 | 1700 | –
13 | NCC(=O)NCC(=O)Nc1ccc(S(N)(=O)=O)cc1F | 45 | 540 | –
14 | NCC(=O)NCC(=O)Nc1cccc(S(N)(=O)=O)c1 | 235 | 17000 | –
15 | Cn1nc(S(N)(=O)=O)s/c1=N\S(=O)(=O)c1ccc(N)cc1 | 0.8 | 1 | –
16 | CNCC(=O)Nc1cccc(S(N)(=O)=O)c1 | 195 | 16600 | –
17 | CNCC(=O)Nc1nccc(Nc2ccc(S(N)(=O)=O)cc2)n1 | 60 | 60 | –
18 | CN(CC(=O)NS(=O)(=O)c1ccc(CO)cc1)C(=N)N | 89 | 1200 | –
19 | NCC(=O)NCC(=O)Nc1c(S(N)(=O)=O)cc(S(N)(=O)=O)c(Cl)c1Cl | 56 | 500 | Change in IOP (Oryctolagus cuniculus [9]): 0 mmHg; Change in IOP (Oryctolagus cuniculus [10]): 4.8 mmHg; Change in IOP (Oryctolagus cuniculus [11]): 3.2 mmHg; Change in IOP (Oryctolagus cuniculus [12]): 7 mmHg; kin: 4.8 h⁻¹; kin [13]: 11.5 h⁻¹; logD [14]: 2.133; solubility (physchem): 59 mM (≈ 25.6 mg/mL)
20 | CNCC(=O)NCc1ccc(S(N)(=O)=O)cc1 | 74 | 965 | –
21 | CN(CC(=O)NS(=O)(=O)c1ccc(CCO)cc1)C(=N)N | 86 | 1000 | –
22 | CNCC(=O)NS(=O)(=O)c1ccc(CCO)cc1 | 112 | 1300 | –
23 | Nc1ccc(S(=O)(=O)Nc2cccc(S(N)(=O)=O)c2)cc1 | 53 | 44 | –
24 | NCC(=O)NCC(=O)Nc1ccc(S(N)(=O)=O)cc1I | 71 | 590 | –
25 | CN(CC(=O)NS(=O)(=O)c1nc2ccc(OCCO)cc2s1)C(=N)N | 11 | 9 | –
26 | CN(CC(=O)Nc1ccc(S(=O)(=O)Nc2nnc(S(N)(=O)=O)s2)cc1)C(=N)N | 5 | 12 | –
27 | CNCC(=O)Nc1ccccc1S(N)(=O)=O | 205 | 20300 | –
28 | CN(CC(=O)Nc1ccccc1S(N)(=O)=O)C(=N)N | 205 | 20300 | –
29 | NCC(=O)Nc1c(S(N)(=O)=O)cc(S(N)(=O)=O)c(Cl)c1Cl | 62 | 520 | –
30 | NCC(=O)Nc1ccc(S(=O)(=O)Nc2cccc(S(N)(=O)=O)c2)cc1 | 79 | 60 | –
